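Compound exposure: 48 hours, 5 concentrations, 96-well plates. TGI marks complete inhibition of growth.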
Experiments:
Assay in all cases: inhibition of tumour cell growth, NCI panel, 48 h
MDA-MB-435 = tested on: MDA-MB-435
IGROV1 ovarian = tested on: IGROV1 ovarian
SK-OV-3 ovarian = tested on: SK-OV-3 ovarian
SNB-75 CNS = tested on: SNB-75 CNS
MCF7 breast = tested on: MCF7 breast
MDA-MB-231 breast = tested on: MDA-MB-231 breast
HS 578T breast = tested on: HS 578T breast
UO-31 renal = tested on: UO-31 renal
U251 CNS = tested on: U251 CNS
SN12C renal = tested on: SN12C renal
M14 melanoma = tested on: M14 melanoma
NCI-H226 lung = tested on: NCI-H226 lung
MDA-N = tested on: MDA-N
COLO 205 colon = tested on: COLO 205 colon
A498 renal = tested on: A498 renal
HCT-15 colon = tested on: HCT-15 colon
RXF 393 renal = tested on: RXF 393 renal
TK-10 renal = tested on: TK-10 renal
HT29 colon = tested on: HT29 colon
OVCAR-4 ovarian = tested on: OVCAR-4 ovarian
LOX IMVI melanoma = tested on: LOX IMVI melanoma
T-47D breast = tested on: T-47D breast
HCT-116 colon = tested on: HCT-116 colon
HOP-92 NSCLC = tested on: HOP-92 NSCLC
OVCAR-8 ovarian = tested on: OVCAR-8 ovarian
NCI-H522 lung = tested on: NCI-H522 lung
HOP-62 NSCLC = tested on: HOP-62 NSCLC
A549 NSCLC = tested on: A549 NSCLC
HL-60(TB) leukemia = tested on: HL-60(TB) leukemia
SW-620 colon = tested on: SW-620 colon
SF-539 CNS = tested on: SF-539 CNS
786-0 renal = tested on: 786-0 renal
OVCAR-3 ovarian = tested on: OVCAR-3 ovarian
SF-268 CNS = tested on: SF-268 CNS
SR leukemia = tested on: SR leukemia
CCRF-CEM leukemia = tested on: CCRF-CEM leukemia
UACC-62 melanoma = tested on: UACC-62 melanoma
CAKI-1 renal = tested on: CAKI-1 renal
ACHN renal = tested on: ACHN renal
NCI-H23 lung = tested on: NCI-H23 lung
MOLT-4 leukemia = tested on: MOLT-4 leukemia
HCC-2998 colon = tested on: HCC-2998 colon
K-562 leukemia = tested on: K-562 leukemia
SF-295 CNS = tested on: SF-295 CNS
SNB-19 CNS = tested on: SNB-19 CNS
SK-MEL-2 melanoma = tested on: SK-MEL-2 melanoma
UACC-257 melanoma = tested on: UACC-257 melanoma
OVCAR-5 ovarian = tested on: OVCAR-5 ovarian
EKVX NSCLC = tested on: EKVX NSCLC
SK-MEL-28 melanoma = tested on: SK-MEL-28 melanoma
KM12 colon = tested on: KM12 colon
BT-549 breast = tested on: BT-549 breast
NCI-H460 lung = tested on: NCI-H460 lung
PC-3 prostate = tested on: PC-3 prostate
RPMI-8226 leukemia = tested on: RPMI-8226 leukemia
NCI/ADR-RES ovarian = tested on: NCI/ADR-RES ovarian
SK-MEL-5 melanoma = tested on: SK-MEL-5 melanoma
DU-145 prostate = tested on: DU-145 prostate

CCCC(=O)NC1=C(Cl)C(=O)c2ccccc2C1=O
TGI (MDA-MB-435): 13.3 µM | TGI (IGROV1 ovarian): 17.9 µM | TGI (SK-OV-3 ovarian): 27.1 µM | TGI (SNB-75 CNS): 20.2 µM | TGI (MCF7 breast): 7.39 µM | TGI (MDA-MB-231 breast): 17.4 µM | TGI (HS 578T breast): > 39.9 µM | TGI (UO-31 renal): 8.99 µM | TGI (U251 CNS): 15.3 µM | TGI (SN12C renal): 31 µM | TGI (M14 melanoma): 13 µM | TGI (NCI-H226 lung): 29.9 µM | TGI (MDA-N): 14.6 µM | TGI (COLO 205 colon): 3.83 µM | TGI (A498 renal): 26.1 µM | TGI (HCT-15 colon): 12.2 µM | TGI (RXF 393 renal): 6.08 µM | TGI (TK-10 renal): 15.6 µM | TGI (HT29 colon): 27.7 µM | TGI (OVCAR-4 ovarian): 17.1 µM | TGI (LOX IMVI melanoma): 6.27 µM | TGI (T-47D breast): 8.02 µM | TGI (HCT-116 colon): 4.52 µM | TGI (HOP-92 NSCLC): 3.22 µM | TGI (OVCAR-8 ovarian): 34.8 µM | TGI (NCI-H522 lung): 2.37 µM | TGI (HOP-62 NSCLC): 25.7 µM | TGI (A549 NSCLC): 16.9 µM | TGI (HL-60(TB) leukemia): 0.899 µM | TGI (SW-620 colon): 6.36 µM | TGI (SF-539 CNS): 7.33 µM | TGI (786-0 renal): 8.92 µM | TGI (OVCAR-3 ovarian): 8.01 µM | TGI (SF-268 CNS): 30.2 µM | TGI (SR leukemia): 6.31 µM | TGI (CCRF-CEM leukemia): > 100 µM | TGI (UACC-62 melanoma): 10.3 µM | TGI (CAKI-1 renal): 10.1 µM | TGI (ACHN renal): 3.83 µM | TGI (NCI-H23 lung): 10.3 µM | TGI (MOLT-4 leukemia): 7.2 µM | TGI (HCC-2998 colon): 16.3 µM | TGI (K-562 leukemia): 7.43 µM | TGI (SF-295 CNS): 17.1 µM | TGI (SNB-19 CNS): 36.4 µM | TGI (SK-MEL-2 melanoma): 6.07 µM | TGI (UACC-257 melanoma): 14 µM | TGI (OVCAR-5 ovarian): 15.4 µM | TGI (EKVX NSCLC): 16.8 µM | TGI (SK-MEL-28 melanoma): 17 µM | TGI (KM12 colon): 15.2 µM | TGI (BT-549 breast): 16.7 µM | TGI (NCI-H460 lung): 20 µM | TGI (PC-3 prostate): 13.8 µM | TGI (RPMI-8226 leukemia): 6.19 µM | TGI (NCI/ADR-RES ovarian): > 23.2 µM | TGI (SK-MEL-5 melanoma): 6.85 µM | TGI (DU-145 prostate): 20.9 µM

Cc1nc(C)c(C(=O)NNC(N)=S)cc1C(=O)NNC(N)=S
TGI (MDA-MB-435): > 100 µM | TGI (IGROV1 ovarian): > 100 µM | TGI (SK-OV-3 ovarian): > 100 µM | TGI (MCF7 breast): > 100 µM | TGI (MDA-MB-231 breast): > 100 µM | TGI (HS 578T breast): > 100 µM | TGI (UO-31 renal): > 100 µM | TGI (U251 CNS): > 100 µM | TGI (SN12C renal): > 100 µM | TGI (M14 melanoma): > 100 µM | TGI (NCI-H226 lung): > 100 µM | TGI (MDA-N): > 100 µM | TGI (COLO 205 colon): > 100 µM | TGI (HCT-15 colon): > 100 µM | TGI (RXF 393 renal): > 100 µM | TGI (TK-10 renal): > 100 µM | TGI (HT29 colon): > 100 µM | TGI (OVCAR-4 ovarian): > 100 µM | TGI (LOX IMVI melanoma): > 100 µM | TGI (T-47D breast): > 100 µM | TGI (HCT-116 colon): > 100 µM | TGI (HOP-92 NSCLC): > 100 µM | TGI (OVCAR-8 ovarian): > 100 µM | TGI (NCI-H522 lung): > 100 µM | TGI (HOP-62 NSCLC): > 100 µM | TGI (A549 NSCLC): > 100 µM | TGI (HL-60(TB) leukemia): > 100 µM | TGI (SW-620 colon): > 100 µM | TGI (SF-539 CNS): > 100 µM | TGI (786-0 renal): > 100 µM | TGI (OVCAR-3 ovarian): > 100 µM | TGI (SF-268 CNS): > 100 µM | TGI (UACC-62 melanoma): > 100 µM | TGI (CAKI-1 renal): > 100 µM | TGI (ACHN renal): > 100 µM | TGI (NCI-H23 lung): > 100 µM | TGI (MOLT-4 leukemia): > 100 µM | TGI (HCC-2998 colon): > 100 µM | TGI (K-562 leukemia): > 100 µM | TGI (SF-295 CNS): > 100 µM | TGI (SNB-19 CNS): > 100 µM | TGI (SK-MEL-2 melanoma): > 100 µM | TGI (UACC-257 melanoma): > 100 µM | TGI (OVCAR-5 ovarian): > 100 µM | TGI (EKVX NSCLC): > 100 µM | TGI (SK-MEL-28 melanoma): > 100 µM | TGI (KM12 colon): > 100 µM | TGI (BT-549 breast): > 100 µM | TGI (NCI-H460 lung): > 100 µM | TGI (PC-3 prostate): > 100 µM | TGI (RPMI-8226 leukemia): > 100 µM | TGI (NCI/ADR-RES ovarian): > 100 µM | TGI (SK-MEL-5 melanoma): > 100 µM | TGI (DU-145 prostate): > 100 µM

— PubChem BioAssay (NCI)
